Measured values reported in patent US7364866B2, “Drosophila G protein coupled receptors, nucleic acids, and methods related to the same” (Pharmacia & Upjohn Company, priority 1999, dated 2008).
Read-outs that look alike come from different tables or passages of the source. Residues, ends and D or L forms follow the SMILES beside them.

Experiments:
DmGPCR7 = experiment: FLIPR analysis of intracellular calcium release; type: cell-based, Drosophila melanogaster; settings: DmGPCR7 in CHO-10001A cells; peptides with C-terminal HSWGa; given in words
Experimental: (§1) Changes in intracellular calcium levels are another recognized indicator of G protein-coupled receptor activity, and such assays can be employed to screen for modulators of DmGPCR activity. For example, CHO cells stably transfected with a DmGPCR expression vector are plated at a density of 4×10^4 cells/well in Packard black-walled, 96-well plates specially designed to discriminate fluorescence signals emanating from the various wells on the plate. The cells are incubated for 60 minutes at 37° C. in modified Dulbecco's PBS (D-PBS) containing 36 mg/L pyruvate and 1 g/L glucose and one of four calcium indicator dyes (Fluo-3™ AM, Fluo-4™ AM, Calcium Green™-1 AM, or Oregon Green™ 488 BAPTA-1 AM), each at a concentration of 4 μM. Plates are washed once with modified D-PBS and incubated for 10 minutes at 37° C. to remove residual dye from the cellular membrane. In addition, a series of washes with modified D-PBS is performed immediately prior to activation of the calcium response.
(§2) A calcium response is initiated by the addition of one or more candidate receptor agonist compounds, calcium ionophore A23187 (10 μM; positive control), or ATP (4 μM; positive control). Fluorescence is measured by Molecular Device's FLIPR with an argon laser (excitation at 488 nm). (See, e.g., Kuntzweiler et al., Drug Dev. Res., 1998, 44(1), 14-20). The F-stop for the detector camera was set at 2.5, and the length of exposure was 0.4 milliseconds. Basal fluorescence of cells was measured for 20 seconds prior to addition of candidate agonist, ATP, or A23187, and the basal fluorescence level was subtracted from the response signal. The calcium signal is measured for approximately 200 seconds, taking readings every two seconds. Calcium ionophore A23187 and ATP increase the calcium signal 200% above baseline levels. In general, activated GPCRs increase the calcium signal approximately 10-15% above baseline signal.
(§3) Originally, we have chosen the GTPγS assay as a functional assay because agonist-driven stimulation of GTPγS reflects early events in the DmGPCR activation cascade, regardless of further activation pathways of various down-stream signaling events. This appears especially useful for the assessment of possible activation of orphan DmGPCRs with unknown functions and unknown signaling pathways. The GTPγS assay was carried out with membranes prepared from CHO cells transiently transfected with DNA encoding Drosophila GPCRs using a 96-well MultiScreen G/FB filter plates and a MultiScreen vacuum manifold (Millipore) for filtration. Since the GTPγS assay is known to poorly recognize GPCRs coupled to the Gq class of G-proteins, a Ca^+2 mobilization assay based on a FLIPR readout was used as well to evaluate Gq-coupled orphan GPCRs in CHO cells transiently transfected with DNA encoding Drosophila GPCRs.

[1] = test system: first Drosophila allatostatin receptor; settings: via Gi/Go pathways; cited from earlier work
DmGPCR4 = experiment: [35S]GTPγS binding assay, membranes of transfected CHO cells; type: biochemical, Drosophila melanogaster; settings: given in words
Experimental: (§4) The transfected cells were washed once with ice-cold Dulbecco's phosphate buffered saline (PBS), 5 ml per 10 cm plate, and scraped into 5 ml of the same buffer. Cell suspensions from multiple plates were combined and centrifuged at 500×g for 10 min at 4° C. The cell pellet was reconstituted in ice-cold TEE (25 mM TRIS, 5 mM EGTA, 5 mM EDTA). Convenient aliquots were snap-frozen in liquid nitrogen and stored at −70° C. After thawing, the cells were homogenized and centrifuged at 4° C., 500×g for 5 minutes to pellet nuclei and unbroken cells. The supernatant was centrifuged at 47,000×g for 30 minutes at 4° C. […] Membrane protein concentration was determined using the BCA Protein Assay Reagent from Pierce (Rockford, Ill.) and BSA as standard. […]
(§5) Ligand-induced stimulation of [^35S]GTPγS binding was expressed as fold increase over the basal activity with no ligand added. Each treatment was run either in triplicate, or, on occasion, in duplicate, and the binding (cpm) was calculated as means +/− standard deviations. Dose-response curves for the receptor/ligand systems were analyzed using a non-linear least square SAS model, y=Bmax X/(Kd+X). Other dose-response curves were analyzed using Prism (GraphPad Software, Inc. San Diego, Calif.) and the following equation y=Bottom+(Top−Bottom)/(1+10^LogEC50-X). […]

DmGPCR5 [2] = target: T1, DmGPCR5 (Drosophila melanogaster, UniProt P30975, L70Q); experiment: biochemical; design: expressed in transfected cells; host or cells: CHO-1000A (so in the source), transient; settings: for EC50, stimulation of GTPγS binding / maximal stimulation of GTPγS binding above basal level: DmGPCR5; for EC50, stimulation of GTPγS binding: given in words; for maximal stimulation of GTPγS binding above basal level: dose-response
Experimental: The transfected cells were washed once with ice-cold Dulbecco's phosphate buffered saline (PBS), 5 ml per 10 cm plate, and scraped into 5 ml of the same buffer. Cell suspensions from multiple plates were combined and centrifuged at 500×g for 10 min at 4° C. The cell pellet was reconstituted in ice-cold TEE (25 mM TRIS, 5 mM EGTA, 5 mM EDTA). Convenient aliquots were snap-frozen in liquid nitrogen and stored at −70° C. After thawing, the cells were homogenized and centrifuged at 4° C., 500×g for 5 minutes to pellet nuclei and unbroken cells. The supernatant was centrifuged at 47,000×g for 30 minutes at 4° C. The membrane pellet was washed once with TEE, resuspended in 20 mM HEPES, pH 7.4, 100 mM NaCl, 10 mM MgCl2, 1 mM EDTA (assay buffer), aliquoted and frozen in liquid nitrogen. Membrane aliquots were stored at −70° C. Membrane protein concentration was determined using the BCA Protein Assay Reagent from Pierce (Rockford, Ill.) and BSA as standard.
Initially, reaction mixtures were prepared in 96-well polypropylene plates (Nunc). In each well, peptide aqueous solution (20 μl, 10×), or water controls (20 μl), 18.2 μM GDP in assay buffer (0.11 ml, 10 μM final), and membranes suspended in assay buffer (50 μl, 10 μg membrane protein) were mixed and placed on ice. […] Then the membranes were washed 3 times with 0.25 ml ice-cold wash buffer/well (10 mM HEPES, 10 mM MgCl2, pH 7.4) and vacuum filtered. […] Each treatment was carried out in triplicates.
Ligand-induced stimulation of [^35S]GTPγS binding was expressed as fold increase over the basal activity with no ligand added. Each treatment was run either in triplicate, or, on occasion, in duplicate, and the binding (cpm) was calculated as means +/− standard deviations. Dose-response curves for the receptor/ligand systems were analyzed using a non-linear least square SAS model, y=Bmax X/(Kd+X). Other dose-response curves were analyzed using Prism (GraphPad Software, Inc. San Diego, Calif.) and the following equation y=Bottom+(Top−Bottom)/(1+10^LogEC50-X).
as §3

[3] = test system: DmGPCR8 and chimeric G-proteins; experiment: calcium mobilization (FLIPR) in CHO-10001A cells co-transfected with chimeric G-proteins; type: cell-based, Drosophila melanogaster; settings: for EC50: read-out: EC50, calcium releasing activity
Experimental: as §1, §2
as §3, with “The GTPγS assay was carried out with membranes prepared from CHO cells transiently transfected with DNA encoding Drosophila GPCRs using a 96-well MultiScreen G/FB filter plates and a MultiScreen vacuum manifold (Millipore) for filtration.” left out

DmGPCR8 [4] = experiment: [35S]GTPγS binding assay, dose response; type: biochemical, Drosophila melanogaster; settings: DmGPCR8 in CHO-10001A cells; given in words
Experimental: as §4, §5

DmGPCR8 [5] = experiment: direct calcium mobilization assay (FLIPR); type: cell-based, Drosophila melanogaster; settings: DmGPCR8 without chimeric G-protein
Experimental: as §1, with “Plates are washed once with modified D-PBS and incubated for 10 minutes at 37° C. to remove residual dye from the cellular membrane. In addition, a series of washes with modified D-PBS is performed immediately prior to activation of the calcium response.” left out
(§6) A calcium response is initiated by the addition of one or more candidate receptor agonist compounds, calcium ionophore A23187 (10 μM; positive control), or ATP (4 μM; positive control). Fluorescence is measured by Molecular Device's FLIPR with an argon laser (excitation at 488 nm). […] Basal fluorescence of cells was measured for 20 seconds prior to addition of candidate agonist, ATP, or A23187, and the basal fluorescence level was subtracted from the response signal. The calcium signal is measured for approximately 200 seconds, taking readings every two seconds. […]

muscle contraction = settings: cited from earlier work
DmGPCR5 [6] = target: T1, DmGPCR5; experiment: cell-based
Source text: The photoprotein luciferase provides another useful tool for assaying for modulators of DmGPCR activity. Cells (e.g., CHO cells or COS7 cells) are transiently co-transfected with both a DmGPCR expression construct (e.g., DmGPCR in pzeoSV2) and a reporter construct which includes a gene for the luciferase protein downstream from a transcription factor binding site, such as the cAMP-response element (CRE), AP-1, or NF-kappa B. Agonist binding to receptors coupled to the Gs subtype of G proteins leads to increases in cAMP, thereby activating the CRE transcription factor and resulting in expression of the luciferase gene. […] Luciferase activity may be quantitatively measured using, e.g., luciferase assay reagents that are commercially available from Promega (Madison, Wis.).
In one exemplary assay, CHO cells are plated in 24-well culture dishes at a density of 100,000 cells/well one day prior to transfection and cultured at 37° C. in MEM (Gibco/BRL) supplemented with 10% fetal bovine serum, 2 mM glutamine, 10 μg/ml penicillin, and 10 μg/ml streptomycin. […] After incubation for 15 minutes at room temperature, 15 μl of the lysate is mixed with 50 μl of substrate solution (Promega) in an opaque-white, 96-well plate, and the luminescence is read immediately on a Wallace model 1450 MicroBeta scintillation and luminescence counter (Wallace Instruments, Gaithersburg, Md.). […]

Dmgpcr6bL = target: T2, Dmgpcr6bL (Drosophila melanogaster, UniProt P25931, I47L); experiment: calcium mobilization assay (FLIPR); type: cell-based; settings: FaRPs tested at 10 μM, active sequences listed in Table 7 (6aL and 6bL)
T2 construct: A new 5′ PCR primer was designed that incorporated the PnuFlyPep15731 start codon; expressed in transfected cells; host or cells: CHO-K1 or CHO-10001A, transient
Experimental: as §1, with “Plates are washed once with modified D-PBS and incubated for 10 minutes at 37° C. to remove residual dye from the cellular membrane. In addition, a series of washes with modified D-PBS is performed immediately prior to activation of the calcium response.” left out
as §6

Dmgpcr6aL = target: T3, Dmgpcr6aL (Drosophila melanogaster, UniProt P25931, I47L); experiment: calcium mobilization assay (FLIPR); type: cell-based; settings: FaRPs tested at 10 μM, active sequences listed in Table 7 (6aL and 6bL)
T3 construct: A new 5′ PCR primer was designed that incorporated the PnuFlyPep15731 start codon; expressed in transfected cells; host or cells: CHO-K1 or CHO-10001A, transient
Experimental: as §1, with “Plates are washed once with modified D-PBS and incubated for 10 minutes at 37° C. to remove residual dye from the cellular membrane. In addition, a series of washes with modified D-PBS is performed immediately prior to activation of the calcium response.” left out
as §6

DmGPCR6a = target: T4, DmGPCR6a (Drosophila melanogaster, UniProt P25931, I47L); experiment: [35S]GTPγS binding assay, membranes of transfected CHO cells; type: biochemical; settings: peptide tested at 5 μM
T4 construct: expressed in transfected cells; host or cells: CHO cells, transient
Experimental: as §4, §5

T1 sequence (P30975 whole entry L70Q): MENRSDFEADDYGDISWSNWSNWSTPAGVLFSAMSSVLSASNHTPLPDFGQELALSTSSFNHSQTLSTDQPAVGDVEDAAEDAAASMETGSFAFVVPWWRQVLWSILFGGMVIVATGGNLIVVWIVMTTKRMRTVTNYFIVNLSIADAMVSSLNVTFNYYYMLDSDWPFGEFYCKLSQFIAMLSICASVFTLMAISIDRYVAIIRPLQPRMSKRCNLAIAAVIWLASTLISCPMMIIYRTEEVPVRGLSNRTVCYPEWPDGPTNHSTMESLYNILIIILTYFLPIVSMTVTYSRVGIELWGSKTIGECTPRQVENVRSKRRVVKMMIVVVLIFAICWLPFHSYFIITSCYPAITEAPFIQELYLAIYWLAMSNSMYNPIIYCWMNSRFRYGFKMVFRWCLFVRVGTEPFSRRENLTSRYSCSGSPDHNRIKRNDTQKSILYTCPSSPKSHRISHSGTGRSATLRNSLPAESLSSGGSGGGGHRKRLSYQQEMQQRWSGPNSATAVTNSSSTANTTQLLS
DmGPCR7, sequence (as listed by the source): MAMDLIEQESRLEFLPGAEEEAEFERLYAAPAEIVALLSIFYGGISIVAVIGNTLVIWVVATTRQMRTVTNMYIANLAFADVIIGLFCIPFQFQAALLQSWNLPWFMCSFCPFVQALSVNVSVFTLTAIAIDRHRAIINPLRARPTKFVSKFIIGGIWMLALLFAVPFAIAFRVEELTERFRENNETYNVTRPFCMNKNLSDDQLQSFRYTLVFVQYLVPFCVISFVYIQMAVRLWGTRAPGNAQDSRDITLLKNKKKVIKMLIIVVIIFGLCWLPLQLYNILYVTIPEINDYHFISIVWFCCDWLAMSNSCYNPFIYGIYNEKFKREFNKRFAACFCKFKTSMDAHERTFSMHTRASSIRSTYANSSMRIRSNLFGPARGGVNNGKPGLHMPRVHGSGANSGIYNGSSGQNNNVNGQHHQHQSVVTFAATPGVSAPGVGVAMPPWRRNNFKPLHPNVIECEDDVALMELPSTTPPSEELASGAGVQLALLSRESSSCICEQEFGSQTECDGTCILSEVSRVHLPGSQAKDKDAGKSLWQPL
DmGPCR4, sequence (as listed by the source): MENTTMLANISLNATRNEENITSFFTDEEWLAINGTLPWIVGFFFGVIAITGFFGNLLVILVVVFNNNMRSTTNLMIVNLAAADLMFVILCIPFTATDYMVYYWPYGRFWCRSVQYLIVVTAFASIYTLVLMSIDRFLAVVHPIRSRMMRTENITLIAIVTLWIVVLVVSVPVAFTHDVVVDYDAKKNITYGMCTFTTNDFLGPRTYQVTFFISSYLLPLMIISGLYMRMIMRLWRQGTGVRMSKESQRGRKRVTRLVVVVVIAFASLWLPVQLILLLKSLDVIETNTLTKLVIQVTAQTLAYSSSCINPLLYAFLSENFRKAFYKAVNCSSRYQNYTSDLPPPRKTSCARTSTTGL
T2 sequence (P25931 other isoform, or with tags, fused parts or gaps I47L): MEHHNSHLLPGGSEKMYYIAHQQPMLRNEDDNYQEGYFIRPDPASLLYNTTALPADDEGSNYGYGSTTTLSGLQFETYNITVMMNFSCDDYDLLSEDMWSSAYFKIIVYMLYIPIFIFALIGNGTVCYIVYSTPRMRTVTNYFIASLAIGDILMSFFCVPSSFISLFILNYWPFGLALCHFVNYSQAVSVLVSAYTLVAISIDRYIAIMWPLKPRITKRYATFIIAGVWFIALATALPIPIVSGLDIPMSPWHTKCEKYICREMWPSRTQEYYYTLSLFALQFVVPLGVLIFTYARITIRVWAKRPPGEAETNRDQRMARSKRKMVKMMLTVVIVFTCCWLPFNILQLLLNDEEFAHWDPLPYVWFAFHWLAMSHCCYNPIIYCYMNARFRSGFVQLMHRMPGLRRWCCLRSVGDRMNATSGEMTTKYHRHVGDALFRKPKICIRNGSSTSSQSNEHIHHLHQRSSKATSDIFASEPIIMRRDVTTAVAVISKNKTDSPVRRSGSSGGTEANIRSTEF
T3 sequence (P25931 whole entry I47L): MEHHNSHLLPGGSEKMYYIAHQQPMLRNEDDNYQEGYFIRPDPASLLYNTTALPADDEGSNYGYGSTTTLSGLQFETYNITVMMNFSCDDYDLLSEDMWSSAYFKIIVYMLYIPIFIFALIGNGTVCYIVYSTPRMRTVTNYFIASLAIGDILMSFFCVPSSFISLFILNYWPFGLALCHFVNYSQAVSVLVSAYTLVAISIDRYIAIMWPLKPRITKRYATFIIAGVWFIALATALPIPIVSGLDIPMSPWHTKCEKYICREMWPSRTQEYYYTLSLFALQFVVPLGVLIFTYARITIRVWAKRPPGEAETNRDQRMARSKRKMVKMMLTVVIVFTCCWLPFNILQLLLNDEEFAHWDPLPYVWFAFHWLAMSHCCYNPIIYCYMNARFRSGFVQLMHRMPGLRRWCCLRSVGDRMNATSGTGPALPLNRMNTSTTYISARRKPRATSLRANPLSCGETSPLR
T4 sequence (P25931 16-464 I47L): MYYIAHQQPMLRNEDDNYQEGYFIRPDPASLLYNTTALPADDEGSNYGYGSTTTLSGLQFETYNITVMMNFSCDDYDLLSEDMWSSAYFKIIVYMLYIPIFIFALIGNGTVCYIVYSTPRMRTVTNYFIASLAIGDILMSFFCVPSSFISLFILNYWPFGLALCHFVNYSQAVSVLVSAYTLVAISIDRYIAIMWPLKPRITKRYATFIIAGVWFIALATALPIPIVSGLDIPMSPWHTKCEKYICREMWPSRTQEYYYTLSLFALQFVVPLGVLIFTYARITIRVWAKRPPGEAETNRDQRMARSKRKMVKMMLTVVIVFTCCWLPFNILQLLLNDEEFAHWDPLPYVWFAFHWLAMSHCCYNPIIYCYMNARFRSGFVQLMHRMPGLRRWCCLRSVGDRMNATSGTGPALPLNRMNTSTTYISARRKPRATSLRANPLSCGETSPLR

Molecule: pGlu-SSFHSWGa [LK-VI]
- EC50, intracellular calcium release (FLIPR) (DmGPCR7): picomoloar to subnanomolar range

Molecule: SRPYSFGL [drostatin-3, Ser-Arg-Pro-Tyr-Ser-Phe-Gly-Leu-NH2]
- functional activation of the receptor [1]: functionally activated
- EC50, GTPγS responses (DmGPCR4): low nanomolar range

Molecule: pGlu-RFHSWGa [DLK-2]
- EC50, intracellular calcium release (FLIPR) (DmGPCR7): picomoloar to subnanomolar range

Molecule: CC[C@H](C)[C@H](NC(=O)[C@H](Cc1ccccc1)NC(=O)[C@H](CO)NC(=O)[C@H](CO)NC(=O)[C@@H](NC(=O)[C@@H]1CCCN1C(=O)[C@H](C)N)[C@@H](C)O)C(=O)NCC(=O)N[C@@H](CCSC)C(=O)N[C@@H](CCCNC(=N)N)C(N)=O [DTK-1, APTSSFIGMR-NH2] (H-APTSSFIGMR-NH2)
- EC50 (DmGPCR5 [2]): 0.25 to 0.5 µM

Molecule: CC[C@H](C)[C@@H]1NC(=O)[C@@H]2CCCN2C(=O)[C@H](CC(N)=O)NC(=O)[C@H](Cc2ccccc2)NC(=O)[C@H](Cc2ccc(O)cc2)NC(=O)[C@@H](NC(=O)[C@H](CCC(N)=O)NC(=O)[C@H](CCCNC(=N)N)NC(=O)[C@H](Cc2ccc(O)cc2)NC(=O)[C@H](CCCNC(=N)N)NC(=O)[C@@H](NC(=O)[C@@H]2CCC(=O)N2)C(C)C)CSSC[C@@H](C(=O)N[C@@H](Cc2ccccc2)C(=O)O)NC(=O)[C@H](CO)NC1=O [DST-C, pGlu-Val-Arg-Tyr-Gln-Cys-Tyr-Phe-Asn-Pro-Ile-Ser-Cys-Phe-OH]
- EC50 ([3]; co-transfected with DmGPCR8 and Gqi5): ~0.03 µM
- EC50 ([3]; co-transfected with DmGPCR8 and Gqo5): ~0.03 µM
- calcium mobilization ([3]; co-transfected with DmGPCR8 and Gqs5): no calcium mobilization was observed
- EC50 ([3]; co-transfected with DmGPCR8 and Gqz5): 0.244 µM
- EC50, GTPγS-binding responses (DmGPCR8 [4]): low nanomolar range
- activity in direct calcium mobilization assay (FLIPR) (DmGPCR8 [5]): did not show any activity
- inhibition of muscle contraction (muscle contraction): potent and prolonged inhibition

Molecule: CC(C)C[C@H](NC(=O)CNC(=O)[C@H](Cc1ccc(O)cc1)NC(=O)[C@H](Cc1ccccc1)NC(=O)[C@H](C)NC(=O)[C@H](CC(C)C)NC(=O)[C@@H]1CCCN1C(=O)[C@H](C)N)C(=O)N[C@@H](CCCNC(=N)N)C(N)=O [DTK-2, APLAFYGLR-NH2] (H-APLAFYGLR-NH2)
- EC50 (DmGPCR5 [6]): 1.06 µM
- EC50, stimulation of GTPγS binding (DmGPCR5 [2]): low micromolar range

Molecule: APVNSFVGMR [DTK-4, APVNSFVGMR-NH2]
- EC50, stimulation of GTPγS binding (DmGPCR5 [2]): low micromolar range

Molecule: CSCC[C@H](NC(=O)CNC(=O)[C@H](Cc1ccc(O)cc1)NC(=O)[C@H](Cc1ccccc1)NC(=O)[C@H](C)NC(=O)[C@H](CC(C)C)NC(=O)[C@@H]1CCCN1C(=O)[C@H](C)N)C(=O)N[C@@H](CCCNC(=N)N)C(N)=O [Met8-DTK-2, APLAFYGMR-NH2] (H-APLAFYGMR-NH2)
- maximal stimulation of GTPγS binding above basal level (DmGPCR5 [2]): ca. 1.5 fold

Molecule: CSCC[C@H](NC(=O)CNC(=O)[C@H](CC(C)C)NC(=O)[C@H](Cc1ccccc1)NC(=O)CNC(=O)[C@H](CC(N)=O)NC(=O)[C@@H]1CCCN1C(=O)[C@H](C)N)C(=O)N[C@@H](CCCNC(=N)N)C(N)=O [DTK-5, APNGFLGMR-NH2] (H-APNGFLGMR-NH2)
- EC50 (DmGPCR5 [6]): 0.197 µM
- EC50 (DmGPCR5 [2]): 0.25 to 0.5 µM
- maximal stimulation of GTPγS binding above basal level (DmGPCR5 [2]): ca. 1.5 fold

Molecule: FLFQPQRF-NH2 [NPFF]
- Ca+2 responses (FLIPR) (Dmgpcr6bL): recognized
- Ca+2 responses (FLIPR) (Dmgpcr6aL): recognized
- increase in GTPγS binding above the basal (DmGPCR6a): 4 fold
